Tested on: HIV
Assay: Table 1 IC50 of the examples (assay method not given; patent concerns inhibiting HIV replication)
Format: cell-based
Settings: Human immunodeficiency virus 1

| SMILES | IC50 [nM] |
| --- | --- |
| Cc1cc2c(c(-c3cc(F)c4c(c3C)CCCO4)c1[C@H](OC(C)(C)C)C(=O)O)CCN2C(=O)C(=O)c1ccccc1 (atropisomer, axis not shown) [Example 175, (S)-2-(tert-Butoxy)-2-((R)-4-(8-fluoro-5-methylchroman-6-yl)-6-methyl-1-(2-oxo-2-phenylacetyl)indolin-5-yl)acetic acid] | 90 |
| Cc1cc2c(c(-c3cc(F)c4c(c3C)CCCO4)c1[C@H](OC(C)(C)C)C(=O)O)CCN2C(=O)c1cccc2c1CCO2 (atropisomer, axis not shown) [Example 177, (S)-2-(tert-Butoxy)-2-((R)-1-(2,3-dihydrobenzofuran-4-carbonyl)-4-(8-fluoro-5-methylchroman-6-yl)-6-methylindolin-5-yl)acetic acid] | 2 |
| Cc1cc(F)ccc1Cn1ccc2c(-c3cc(F)c4c(c3C)CCCO4)c([C@H](OC(C)(C)C)C(=O)O)c(C)cc21 (atropisomer, axis not shown) [Example 199, (S)-2-(tert-Butoxy)-2-((R)-1-(4-fluoro-2-methylbenzyl)-4-(8-fluoro-5-methylchroman-6-yl)-6-methyl-1H-indol-5-yl)acetic acid] | 42 |
| Cc1cc2c(c(-c3cc(F)c4c(c3C)CCCO4)c1[C@H](OC(C)(C)C)C(=O)O)CCN2C(=O)c1cccc(C(=O)N2CCCCC2)c1 (atropisomer, axis not shown) [Example 164, (S)-2-(tert-Butoxy)-2-((R)-4-(8-fluoro-5-methylchroman-6-yl)-6-methyl-1-(3-(piperidine-1-carbonyl)benzoyl)indolin-5-yl)acetic acid] | 176 |
| Cc1ccc(-c2c3c(cc(C)c2C(OC(C)(C)C)C(=O)O)N(c2ccccc2)CCC3)cc1 (stereo not shown) [Example 211, 2-(tert-Butoxy)-2-(7-methyl-1-phenyl-5-(p-tolyl)-1,2,3,4-tetrahydroquinolin-6-yl)acetic acid] | 10400 |
| COc1cc(C(F)(F)F)ccc1C(=O)N1CCc2c1cc(C)c([C@H](OC(C)(C)C)C(=O)O)c2-c1cc(F)c2c(c1C)CCCO2 (atropisomer, axis not shown) [Example 163, (S)-2-(tert-Butoxy)-2-((R)-4-(8-fluoro-5-methylchroman-6-yl)-1-(2-methoxy-4-(trifluoromethyl)benzoyl)-6-methylindolin-5-yl)acetic acid] | 9 |
| Cc1ccc(-c2c3c(cc(C)c2[C@H](OC(C)(C)C)C(=O)O)N(C(=O)c2ccc(F)cc2)CC3)cc1 [Example 14, (S)-2-(tert-Butoxy)-2-(1-(4-fluorobenzoyl)-6-methyl-4-(p-tolyl)indolin-5-yl)acetic acid] | 7 |
| Cc1cc2c(c(-c3cc(F)c4c(c3C)CCCO4)c1[C@H](OC(C)(C)C)C(=O)O)CCN2C(=O)c1ccc(Cl)c(F)c1 (atropisomer, axis not shown) [Example 56, (S)-2-(tert-Butoxy)-2-((R)-1-(4-chloro-3-fluorobenzoyl)-4-(8-fluoro-5-methylchroman-6-yl)-6-methylindolin-5-yl)acetic acid] | 2 |
| Cc1cc2c(c(-c3cc(F)c4c(c3C)CCCO4)c1[C@H](OC(C)(C)C)C(=O)O)CCN2C(=O)c1ccc(C(F)(F)F)cc1 (atropisomer, axis not shown) [Example 46, (S)-2-(tert-Butoxy)-2-((R)-4-(8-fluoro-5-methylchroman-6-yl)-6-methyl-1-(4-(trifluoromethyl)benzoyl)indolin-5-yl)acetic acid] | 4 |
| COc1cc(-c2c3c(cc(C)c2[C@H](OC(C)(C)C)C(=O)O)N(C(=O)c2ccc(C)nc2)CC3)c(C)c2c1OCCC2 (atropisomer, axis not shown) [Example 193, (S)-2-(tert-Butoxy)-2-((R)-4-(8-methoxy-5-methylchroman-6-yl)-6-methyl-1-(6-methylnicotinoyl)indolin-5-yl)acetic acid] | 9 |
| COc1ccc(Cl)cc1C(=O)N1CCc2c1cc(C)c([C@H](OC(C)(C)C)C(=O)O)c2-c1cc(F)c2c(c1C)CCCO2 (atropisomer, axis not shown) [Example 50, (S)-2-(tert-Butoxy)-2-((R)-1-(5-chloro-2-methoxybenzoyl)-4-(8-fluoro-5-methylchroman-6-yl)-6-methylindolin-5-yl)acetic acid] | 5 |
| Cc1ccc(-c2c3c(cc(C)c2[C@H](OC(C)(C)C)C(=O)O)N(C(=O)c2cccc(F)c2F)CC3)cc1 [Example 43, (S)-2-(tert-Butoxy)-2-(1-(2,3-difluorobenzoyl)-6-methyl-4-(p-tolyl)indolin-5-yl)acetic acid] | 10 |
| Cc1ccc(F)c(C(=O)N2CCc3c2cc(C)c([C@H](OC(C)(C)C)C(=O)O)c3-c2cc(F)c3c(c2C)CCCO3)c1 (atropisomer, axis not shown) [Example 55, (S)-2-(tert-Butoxy)-2-((R)-1-(2-fluoro-5-methylbenzoyl)-4-(8-fluoro-5-methylchroman-6-yl)-6-methylindolin-5-yl)acetic acid] | 6 |
| Cc1cc2c(c(-c3ccc4c(c3C)CCCO4)c1[C@H](OC(C)(C)C)C(=O)O)CCN2C(=O)c1cc(F)cc(F)c1 (atropisomer, axis not shown) [Example 189, (S)-2-(tert-Butoxy)-2-((R)-1-(3,5-difluorobenzoyl)-6-methyl-4-(5-methylchroman-6-yl)indolin-5-yl)acetic acid] | 6 |
| COc1ccc(C(=O)N2CCc3c2cc(C)c([C@H](OC(C)(C)C)C(=O)O)c3-c2ccc3c(c2C)CCCO3)cc1F (atropisomer, axis not shown) [Example 187, (S)-2-(tert-Butoxy)-2-((R)-1-(3-fluoro-4-methoxybenzoyl)-6-methyl-4-(5-methylchroman-6-yl)indolin-5-yl)acetic acid] | 6 |
| Cc1cc2c(c(-c3cc(F)c4c(c3C)CCCO4)c1[C@H](OC(C)(C)C)C(=O)O)CCN2C(=O)c1ccc(F)cc1C(F)(F)F (atropisomer, axis not shown) [Example 64, (S)-2-(tert-Butoxy)-2-((R)-1-(4-fluoro-2-(trifluoromethyl)benzoyl)-4-(8-fluoro-5-methylchroman-6-yl)-6-methylindolin-5-yl)acetic acid] | 5 |
| Cc1cc2c(c(-c3cc(F)c4c(c3C)CCCO4)c1[C@H](OC(C)(C)C)C(=O)O)CCN2C(=O)c1ccccc1C(F)(F)F (atropisomer, axis not shown) [Example 125, (S)-2-(tert-Butoxy)-2-((R)-4-(8-fluoro-5-methylchroman-6-yl)-6-methyl-1-(2-(trifluoromethyl)benzoyl)indolin-5-yl)acetic acid] | 5 |
| COc1ccc(C(=O)N2CCc3c2cc(C)c([C@H](OC(C)(C)C)C(=O)O)c3-c2cc(F)c3c(c2C)CCCO3)cc1C (atropisomer, axis not shown) [Example 102, (S)-2-(tert-Butoxy)-2-((R)-4-(8-fluoro-5-methylchroman-6-yl)-1-(4-methoxy-3-methylbenzoyl)-6-methylindolin-5-yl)acetic acid] | 2 |
| Cc1cc(C(=O)N2CCc3c2cc(C)c([C@H](OC(C)(C)C)C(=O)O)c3-c2cc(F)c3c(c2C)CCCO3)ccc1Cl (atropisomer, axis not shown) [Example 110, (S)-2-(tert-Butoxy)-2-((R)-1-(4-chloro-3-methylbenzoyl)-4-(8-fluoro-5-methylchroman-6-yl)-6-methylindolin-5-yl)acetic acid] | 4 |
